Values quoted from earlier work, collected in paper PMC3723878 (PLoS ONE, 2013).

Target: T1, α1A-AR (Homo sapiens, UniProt P35348)
T1 sequence (P35348 1-466): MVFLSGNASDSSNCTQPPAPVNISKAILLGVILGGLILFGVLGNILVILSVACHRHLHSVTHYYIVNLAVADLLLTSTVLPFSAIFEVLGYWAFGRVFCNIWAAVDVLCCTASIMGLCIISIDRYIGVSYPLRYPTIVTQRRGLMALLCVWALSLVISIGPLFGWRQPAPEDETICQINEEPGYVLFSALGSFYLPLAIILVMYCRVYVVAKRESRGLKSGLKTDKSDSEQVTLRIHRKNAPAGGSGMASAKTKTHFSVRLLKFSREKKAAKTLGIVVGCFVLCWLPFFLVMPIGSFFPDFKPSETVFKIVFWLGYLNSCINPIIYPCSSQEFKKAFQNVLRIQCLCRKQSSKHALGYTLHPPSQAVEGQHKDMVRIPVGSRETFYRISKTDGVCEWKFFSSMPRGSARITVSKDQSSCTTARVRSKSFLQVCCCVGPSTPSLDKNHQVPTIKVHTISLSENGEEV
Design: expressed in transfected cells; method as in PMID 20978120
Conditions: CHO cells used for Ca^2+ release experiments; cited from earlier work

Q: For `O=C1c2ccccc2CCC1CNCCc1ccc(O)c([125I])c1` (stereo not shown) [125I-HEAT], which pKD is on record?
A: 9.2±0.09
